Several values for one entry are separate records, joined by “and”; a condition that tells them apart may be missing. Equal values may be shown once. Entries after “also recorded” stand apart in the source; their conditions may differ. Residues, ends and D or L forms follow the SMILES beside them.
Key:
p110α (p110α/p85α) = p110α (p110α/p85α) (Homo sapiens, UniProt P42336); assay: Microscale thermophoresis (MST) binding to labelled p110α/p85α
p110α/KRAS interaction = p110α/KRAS interaction (Homo sapiens, UniProt P42336); assay: MST competition assay of the p110α/KRAS interaction; type: binding; conditions: 20 µM peptide
Procedure: We next wanted to test whether the cyclo-CRVLIR peptide is capable of inhibiting the p110α/KRAS interaction.
Measurements were performed using a NanoTemper Monolith™ NT.115 instrument (NanoTemper Technologies GmbH, München, Germany). Protein samples were labelled with the amine reactive dye NT-647 (or NT-495) using the Monolith™ NT.115 Protein Labeling Kit RED-NHS (or Monolith™ NT.115 Protein Labeling Kit BLUE-NHS). Labelling levels (generally in the range 0.3–0.4 dye molecules per protein molecule) were determined using calculated extinction coefficients for the protein and ε647 = 250,000 M^−1 cm^−1 (or ε495 = 70,000 M^−1 cm^−1) for the dye concentration. In a typical experiment […] aliquots of a 100 nM stock solution of labelled protein were mixed with […] aliquots of a serial dilution of binding partner. These solutions were then loaded into standard treated capillaries and MST measurements were performed at 25 °C using 20–40% LED power and 40–60% IR-Laser power. The laser Laser-On time was 30 s and Laser-Off time 5 s. All measurements were performed at least five times.

p110α = p110α (Homo sapiens, UniProt P42336); assay: NMR STD and Water-LOGSY interaction with p110α; type: binding; conditions: 1 mM peptide, 8 µM p110α
Procedure: Here we chose Nuclear Magnetic Resonance (NMR) as an orthogonal technique to detect the cyclo-CRVLIR binding to p110α. We applied two commonly used NMR-based techniques that can detect protein/ compound interaction: STD (Saturation transfer difference), and Water-LOGSY (water-ligand observed through gradient spectroscopy)[34],[35].
NMR experiments were performed at 20 °C using a Bruker Avance IIIHD spectrometer operating at 700 MHz. STD experiments employed off-resonance saturation (2 s) at − 40 ppm, and on-resonance at − 1 ppm. Waterlogsy experiments used a mixing time of 1.5 s.

H1792 cells = assay: Western blot of phospho-AKT / phospho-ERK in H1792 cells; type: cell-based, human; conditions: 4 h
Procedure: We treated the human lung cancer cell line H1792, growing at steady-state in Roswell Park Memorial Institute (RPMI) 1640 media with 10% Foetal Calf Serum (FCS), with the seven cyclic peptides at three different concentrations (2, 10 and 50 µM) for 4 h. After treatment we measured the effect of the peptides on the phosphorylation levels of AKT (pAKT-Ser473), a key downstream effector of p110α activity. […] In contrast, the phosphorylation levels of ERK (p-ERK), which is a downstream effector of the RAS/RAF/MEK/ERK pathway and is independent of p110α activity, were not affected.
The next day, 1 ml of medium was removed and the cells were treated with different peptide concentrations for 4 h. All peptides were dissolved in 25 mM Tris pH8, 100 mM NaCl and 1 mM TCEP. Cells were then harvested and lysed for SDS-PAGE and western blot analysis. Anti-calnexin antibody was obtained from Abcam. Antibodies directed against phospho-T202/Y204-ERK, ERK, phospho-S473-AKT and AKT were obtained from Cell Signaling. After western blotting, calnexin, AKT and phospho-AKT signals were quantified using ImageJ and statistical tests were done using Prism software.

H1373 cells = assay: Western blot of phospho-AKT / phospho-ERK in H1373 cells; type: cell-based, human; conditions: 4 h
Sm-KRAS/Lg-RBDα = molecular target: T1, Sm-KRAS/Lg-RBDα (Homo sapiens, UniProt P42336); assay: NanoBiT Biochemical Assay (NBBA) Sm-KRAS/Lg-RBDα; conditions: HEK293 cell lysate, 50 µM
T1 construct: Lg-BiT fused to the RBD of either p110α, p110 δ or p110γ; expressed in transfected cells; host or cells: HEK293 (lysate)
From the text: We next sought to determine whether cyclo-CRVLIR binds specifically to p110α or if it can also interact with other PI3K isoforms. We chose the NBBA (NanoBiT Biochemical Assay), which was previously developed by our laboratory, as a tool to detect if cyclo-CRVLIR could inhibit the interaction of RAS with p110α, p110 δ and p110γ[36]. The NBBA is biochemical adaptation of the NanoBiT cellular assay that is based on the split luciferase NanoLuc system that uses separate Large-BiT (Lg-BiT) and Small-BiT (Sm-BiT) components, each fused to a protein of interest. When the Lg-BiT and Sm-BiT proteins are brought into close proximity, upon the binding of their cognate target proteins, they produce a luminescence signal. […] Cells were harvested at 48 h post-transfection and the cell lysates tested for the interaction of Sm-KRAS with each of the PI3K binding isoforms in the presence or absence of 50 µM cyclo-CRVLIR.
The production of the Sm-KRAS, and the Lg-RBD- of p110α, β, δ, γ constructs and lysate are described in detail in a previous report. The cell lysate was treated with 50 µM cyclo-CRVLIR for 20–30 min before detection by the addition of the Nano-Glo.

[1] = Solubility of the peptides (in words); type: physicochemical

p110α (p110α/p85α), sequence (P42336 whole entry, species assumed): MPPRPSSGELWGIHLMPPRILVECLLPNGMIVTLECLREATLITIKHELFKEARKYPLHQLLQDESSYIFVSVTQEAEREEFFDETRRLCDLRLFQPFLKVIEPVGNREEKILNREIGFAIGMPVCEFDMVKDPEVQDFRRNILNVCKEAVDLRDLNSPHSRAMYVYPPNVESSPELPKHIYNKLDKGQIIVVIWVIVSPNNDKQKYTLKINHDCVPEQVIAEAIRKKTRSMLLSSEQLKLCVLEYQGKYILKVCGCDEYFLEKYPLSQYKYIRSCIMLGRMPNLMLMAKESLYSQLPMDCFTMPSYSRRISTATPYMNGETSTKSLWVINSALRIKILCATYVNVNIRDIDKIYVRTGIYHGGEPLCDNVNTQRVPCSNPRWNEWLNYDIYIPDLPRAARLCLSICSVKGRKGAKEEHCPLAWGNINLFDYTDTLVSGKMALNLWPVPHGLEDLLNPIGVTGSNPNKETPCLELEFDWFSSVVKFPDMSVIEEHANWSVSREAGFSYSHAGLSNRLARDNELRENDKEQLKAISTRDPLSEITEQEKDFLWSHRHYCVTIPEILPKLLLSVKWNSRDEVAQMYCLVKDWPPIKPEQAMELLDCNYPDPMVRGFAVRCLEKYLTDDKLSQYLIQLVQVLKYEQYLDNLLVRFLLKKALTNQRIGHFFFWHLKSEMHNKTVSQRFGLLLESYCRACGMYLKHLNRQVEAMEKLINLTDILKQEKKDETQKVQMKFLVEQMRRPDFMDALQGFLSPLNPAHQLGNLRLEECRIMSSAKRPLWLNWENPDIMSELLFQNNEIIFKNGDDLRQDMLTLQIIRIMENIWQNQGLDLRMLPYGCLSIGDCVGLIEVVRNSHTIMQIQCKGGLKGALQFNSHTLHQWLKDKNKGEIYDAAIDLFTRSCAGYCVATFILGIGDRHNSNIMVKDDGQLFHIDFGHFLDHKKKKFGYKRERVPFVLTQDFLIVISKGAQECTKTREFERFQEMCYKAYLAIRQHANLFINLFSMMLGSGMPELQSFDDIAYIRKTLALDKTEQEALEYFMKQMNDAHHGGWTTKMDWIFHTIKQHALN
p110α (p110α/p85α), sequence (P27986 whole entry partner, species assumed): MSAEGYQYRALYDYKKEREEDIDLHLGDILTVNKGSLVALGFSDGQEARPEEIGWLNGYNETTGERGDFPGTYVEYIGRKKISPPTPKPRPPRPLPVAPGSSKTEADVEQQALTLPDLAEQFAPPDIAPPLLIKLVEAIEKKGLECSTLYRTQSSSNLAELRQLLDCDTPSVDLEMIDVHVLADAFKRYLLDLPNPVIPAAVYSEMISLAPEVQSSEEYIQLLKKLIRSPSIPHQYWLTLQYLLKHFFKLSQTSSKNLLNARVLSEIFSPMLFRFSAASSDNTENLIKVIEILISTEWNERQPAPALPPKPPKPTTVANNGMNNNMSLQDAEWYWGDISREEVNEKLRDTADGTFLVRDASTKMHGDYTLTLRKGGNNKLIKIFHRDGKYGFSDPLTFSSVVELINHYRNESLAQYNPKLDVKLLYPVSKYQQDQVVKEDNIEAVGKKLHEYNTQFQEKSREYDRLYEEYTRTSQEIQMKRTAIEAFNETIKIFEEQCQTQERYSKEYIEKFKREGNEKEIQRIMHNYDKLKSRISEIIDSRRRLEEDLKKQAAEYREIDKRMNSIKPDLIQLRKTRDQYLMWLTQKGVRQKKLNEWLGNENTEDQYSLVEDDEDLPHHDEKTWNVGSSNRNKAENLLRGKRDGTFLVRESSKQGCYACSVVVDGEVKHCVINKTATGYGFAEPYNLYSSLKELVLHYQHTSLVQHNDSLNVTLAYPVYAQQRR
p110α/KRAS interaction, sequence (P42336 whole entry, species assumed): as the sequence (P42336 whole entry, species assumed) above
p110α/KRAS interaction, sequence (P27986 whole entry partner, species assumed): as the sequence (P27986 whole entry partner, species assumed) above
T1 sequence (P42336 187-289 limits assumed): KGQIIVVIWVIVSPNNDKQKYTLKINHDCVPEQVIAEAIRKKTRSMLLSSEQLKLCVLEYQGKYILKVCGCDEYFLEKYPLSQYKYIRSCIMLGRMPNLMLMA
p110α, sequence (P42336 whole entry, species assumed): as the sequence (P42336 whole entry, species assumed) above
p110α, sequence (P27986 whole entry partner, species assumed): as the sequence (P27986 whole entry partner, species assumed) above

## CC[C@H](C)[C@@H]1NC(=O)[C@H](CC(C)C)NC(=O)[C@H](C(C)C)NC(=O)[C@H](CCCNC(=N)N)NC(=O)[C@H](CS)NC(=O)[C@H](CCCNC(=N)N)NC1=O [cyclo-CRVLIR, Cyclo-CRVLIR] (cyclo(CRVLIR))
p110α (p110α/p85α); MST
  increase in affinity for p110α over cyclo-CRVLAA: ~120 fold
p110α (p110α/p85α); labelled protein 100 nM, 25 °C
  Kd: 2900 nM and 3000 nM
p110α/KRAS interaction
  p110α/KRAS interaction in the presence of the peptide: blocked; also recorded: did not detect the p110α/KRAS interaction; also recorded: inhibits the p110α/RAS interaction
p110α
  interaction with p110α by STD and Water-LOGSY NMR: clear signal of interaction
H1792 cells
  effect on phosphorylation levels of ERK (p-ERK): not affected
H1792 cells; RPMI 1640 10% FCS, 2, 10 and 50 µM (also 4, 20 and 100 µM)
  effect on phospho-AKT (pAKT-Ser473) levels: dose dependent effect; also recorded: reduces the levels of pAKT
H1373 cells; H1373 cells, 4, 20 and 100 µM
  effect on phospho-AKT (pAKT-S473) levels: inhibition of pAKT; also recorded: reduces the levels of pAKT
H1373 cells; H1373 cells
  effect on phosphorylation levels of ERK (p-ERK): not affected
Sm-KRAS/Lg-RBDα
  inhibition of the Sm-KRAS/Lg-RBDα interaction signal: reduction in the interaction signal; also recorded: able to inhibit
[1]
  solubility in words: more soluble than the parent peptide cyclo-CRVLAA; also recorded: significantly more soluble than our original cyclo-CRVLAA peptide

Reference: article PMC9894841, “Characterisation of a cyclic peptide that binds to the RAS binding domain of phosphoinositide 3-kinase p110α” (Scientific Reports, 2023)
